{"source": "the CATMoS acute toxicity set (Mansouri et al. 2021)", "origin": "cited, not measured here", "note": "Values joined by “and” are separate entries in the source; they are usually repeats but may differ in a detail not shown here. Equal entries are not always repeated.", "data": [{"assay": "rat acute oral toxicity", "settings": "in vivo", "source_text": "[…]The data set underlying the modeling effort for this project was initially compiled by NICEATM and U.S. EPA’s CCTE. Briefly, LD50 data were collected from rat acute oral systemic toxicity tests, including limit tests, ranges/confidence intervals, and discrete LD50 values. The full data set included 21,200 LD50 entries for 15,688 substances. […] Data were reviewed to ensure that LD50 values with obvious errors in the extracted data such as unit conversion errors (e.g., comma and decimal separator misplacements) were either fixed or removed. After this review, 16,209 LD50 values remained. Many of the chemicals represented had multiple LD50 entries, requiring that a single representative value per Chemical Abstracts Service Registry Number (CASRN) identifier be defined to facilitate modeling efforts. Based on ATWG feedback and to define the representative LD50 as a protective value while accounting for the distribution across multiple LD50s, the median of the lowest quartile was computed using only discrete LD50 values (omitting limit test data and range and confidence interval data). A detailed summary of the data compilation is available online on the NICEATM webpage dedicated to the collaborative modeling project (NTP 2020).\n[…][…] For categorical designations, limit test and range/confidence interval LD50 data were integrated wherever possible. As such, the number of chemicals with end point values/calls varies across the modeling end points (Table 3) based on whether chemicals had representative LD50 values and/or other data. If a chemical had both, the representative value was used to determine categorical calls rather than limit test data. Some data were useable only for certain end points and categories depending on the thresholds. For example, ranges that spanned multiple hazard categories were considered only for the binary (very toxic/nontoxic) end points and omitted from rendering a determination for hazard category assignment.\n[…]The final data set comprising 11,992 chemicals was split into training and evaluation sets […], respectively. This process was performed semirandomly by ordering chemicals based on the five end points (categorical and continuous LD50 values) and partitioning every fourth record into the evaluation set accordingly. This approach was taken to ensure an equivalent distribution of the LD50 values and the different hazard categories between the training and the evaluation sets without supervised sampling of the chemicals based on structures (Figure 1A). The sources of the chemical structures were also kept equivalent between the two sets, with chemical structures obtained from DSSTox, being the highest quality, representing over 75% of each set (Figure 1B).", "values": [{"smiles": "CCOP(=S)(OCC)Oc1ccc(=O)n(-c2ccccc2)n1", "LD50": "424 mg/kg"}, {"smiles": "CC(C)(C)C1CCC(NCCC(c2ccccc2)c2ccccc2)CC1", "note": "(centres undefined)", "LD50": "2550 mg/kg"}, {"smiles": "CCCCCCCCCCCCCCCCOC(=O)C1CC1", "LD50": "12200 mg/kg"}, {"smiles": "C[N+]1(C)CCCCC1", "LD50": "270 mg/kg and 464 mg/kg"}, {"smiles": "O=C(O)c1c(Cl)ccc(Cl)c1Cl", "LD50": "1640 mg/kg"}, {"smiles": "CC(C)CCCCCOC(=O)CS", "LD50": "348 mg/kg"}, {"smiles": "Cc1nn(C)c(=O)c2noc(C)c12", "LD50": "1000 mg/kg"}, {"smiles": "OC(c1ccccc1)(c1ccccc1)C1CN2CCC1CC2", "note": "(centres undefined)", "LD50": "440 mg/kg"}, {"smiles": "COP(=S)(OC)SCC(=O)CNC(=O)Oc1cccc(C(C)C)c1", "LD50": "432 mg/kg"}, {"smiles": "CCC1(c2ccccc2)NC(=O)N(C)C1=O", "note": "(centres undefined)", "LD50": "850 mg/kg"}, {"smiles": "CN(C)CCCN(C)[C@H]1CC[C@H]2[C@@H]3CC=C4C[C@@H](O)CC[C@]4(C)[C@H]3CC[C@]12C", "LD50": "470 mg/kg"}, {"smiles": "CCCCNCCO", "LD50": "1150 mg/kg"}, {"smiles": "O=C(O)[C@@H]1CC[C@H](C(=O)O)C1", "LD50": "3250 mg/kg"}, {"smiles": "COc1ccc(C(C)=O)cc1", "LD50": "1720 mg/kg"}, {"smiles": "c1coc(OCC2CO2)c1", "note": "(centres undefined)", "LD50": "1100 mg/kg"}, {"smiles": "CC=C(C(=O)NC(N)=O)C(C)C", "LD50": "9000 mg/kg"}, {"smiles": "NCCCC[C@H](N)C(=O)O", "LD50": "11400 mg/kg and 10000 mg/kg"}, {"smiles": "CCCCCCCCCCCC[N+](C)(C)CC(O)CCl", "note": "(centres undefined)", "LD50": "1070 mg/kg"}, {"smiles": "Cc1ccc(NN)cc1", "LD50": "262 mg/kg"}, {"smiles": "O=S(=O)(O)c1cccc(Nc2nc(Nc3ccc(C=Cc4ccc(Nc5nc(Nc6cccc(S(=O)(=O)O)c6)nc(N(CCO)CCO)n5)cc4S(=O)(=O)O)c(S(=O)(=O)O)c3)nc(N(CCO)CCO)n2)c1", "LD50": "1960 mg/kg"}, {"smiles": "Nc1ncc(C=Cc2ccc([N+](=O)[O-])o2)nn1", "LD50": "250 mg/kg"}, {"smiles": "COc1ccc2c(=O)oc3c(OC)cc(CCN(C)C)c4c(=O)oc1c2c34", "LD50": "518 mg/kg"}, {"smiles": "C1CCc2c(OCCN3CCOCC3)n[nH]c2C1", "LD50": "1600 mg/kg"}, {"smiles": "S=c1[nH]c2cc(Cl)ccc2o1", "LD50": "1000 mg/kg"}, {"smiles": "FC(F)(F)c1nc2c(Cl)cc(Br)cc2[nH]1", "LD50": "6.4 mg/kg"}, {"smiles": "c1ccc2c(OCCN3CCCC3)ccnc2c1", "LD50": "280 mg/kg"}, {"smiles": "CC(Br)C=CCl", "note": "(centres undefined)", "LD50": "74 mg/kg"}, {"smiles": "CC(C)(C)NCC(O)c1ccccc1Cl", "note": "(centres undefined)", "LD50": "560 mg/kg"}, {"smiles": "CCC(C)c1ccccc1OC(N)=O", "note": "(centres undefined)", "LD50": "410 mg/kg"}, {"smiles": "CCN(CC)CCOCCOC(=O)C(CC)(CC)c1ccccc1", "LD50": "183 mg/kg"}, {"smiles": "COc1cc(C=CC(=O)N2CCN(CC(=O)NC(C)C)CC2)cc(OC)c1OC", "LD50": "1300 mg/kg"}, {"smiles": "CCOC(=O)N(C)N=O", "LD50": "180 mg/kg"}, {"smiles": "CCOC(=O)CCCCCCCCC(=O)OCC", "LD50": "14500 mg/kg"}, {"smiles": "CCCN=C(NCCC)C(OCC)c1ccc(Cl)cc1", "note": "(centres undefined)", "LD50": "47 mg/kg"}, {"smiles": "COc1cc(N)c(C)cc1N(C)C", "LD50": "29.7 mg/kg"}, {"smiles": "CCC(O)(COC(N)=O)c1ccccc1", "note": "(centres undefined)", "LD50": "607 mg/kg"}, {"smiles": "CCCCCCCN1C(C)=CSC1=Cc1scc(C)[n+]1CCCCCCC", "LD50": "460 mg/kg"}, {"smiles": "CCCCSC(C)C1(CC)C(=O)N=C(O)NC1=O", "note": "(centres undefined)", "LD50": "582 mg/kg"}, {"smiles": "COC1CC(=C(c2cccs2)c2cccs2)C[N+](C)(C)C1", "note": "(centres undefined)", "LD50": "1210 mg/kg"}, {"smiles": "COC(=O)CC1CCCCC1", "LD50": "2500 mg/kg"}, {"smiles": "COc1ccc2c3c1O[C@H]1C(=O)CC[C@H]4[C@@H](C2)N(C)CC[C@]314", "LD50": "375 mg/kg"}, {"smiles": "CC(C)(COC(N)=O)COC(N)=O", "LD50": "2510 mg/kg"}, {"smiles": "CN(CCn1cnc2c1c(=O)n(C)c(=O)n2C)c1ccccc1", "LD50": "2880 mg/kg"}, {"smiles": "CC1OC1C", "note": "(centres undefined)", "LD50": "2150 mg/kg"}, {"smiles": "c1ccc(-n2cnnc2)cc1", "LD50": "134 mg/kg"}, {"smiles": "CN(C)P1(=S)OCc2cc([N+](=O)[O-])ccc2O1", "note": "(centres undefined)", "LD50": "125 mg/kg"}, {"smiles": "CNC(=O)ON=C1CCCC1(C)[N+](=O)[O-]", "note": "(centres undefined)", "LD50": "4 mg/kg"}, {"smiles": "NCCOCCO", "LD50": "3000 mg/kg"}, {"smiles": "CNC(=O)Oc1cccc2c(O)cccc12", "LD50": "297 mg/kg"}, {"smiles": "COC(C)(C)CCCC(C)C(C)O", "note": "(centres undefined)", "LD50": "4490 mg/kg"}, {"smiles": "CC(=O)Nc1ccncc1", "LD50": "446 mg/kg"}, {"smiles": "CCCCCC(=O)NP(=O)(OC)SC", "note": "(centres undefined)", "LD50": "25 mg/kg"}, {"smiles": "Cc1cc(C(C)(C)C)c(O)c(C)c1CC1=NCCN1", "LD50": "0.8 mg/kg and 0.68 mg/kg"}, {"smiles": "COP(=O)(OC)Oc1nc(Cl)c(Cl)cc1Cl", "LD50": "869 mg/kg"}, {"smiles": "CNC(=O)Oc1cc(C)cc(C(C)C)c1", "LD50": "35 mg/kg"}, {"smiles": "O=C(C(F)(F)Cl)C(F)(F)Cl", "LD50": "61 mg/kg"}, {"smiles": "CCCCCCCCNC(C)C(O)c1ccc(SC(C)C)cc1", "note": "(centres undefined)", "LD50": "1740 mg/kg"}, {"smiles": "CCOCN(C(=O)CCl)c1c(C)cccc1OC(C)C", "LD50": "2700 mg/kg"}, {"smiles": "CCCCN(COC(C)=O)N=O", "LD50": "1500 mg/kg"}, {"smiles": "O=C(O)[C@H]1/C(=C/CO)O[C@@H]2CC(=O)N21", "LD50": "7940 mg/kg"}, {"smiles": "CCCCC[C@H](O)/C=C/[C@H]1[C@H](O)CC(=O)[C@@H]1C/C=C\\CCCC(=O)O", "LD50": "500 mg/kg"}, {"smiles": "C=COCCOC(=O)C(=C)C", "LD50": "5940 mg/kg"}, {"smiles": "COc1c(OP(=S)(OC)OC)cnn(C)c1=O", "LD50": "2.5 mg/kg"}, {"smiles": "O=S1(=O)CCCCO1", "LD50": "500 mg/kg"}]}]}
